{"source": "patent US8258145B2", "about": "“Method of treating brain cancer” (Myrexis, Inc., priority 2005, dated 2012)", "key": {"T-47D": {"system": "T-47D", "test": "Caspase cascade activation (caspase activity ratio and potency), fluorogenic N-(Ac-DEVD)-N'-ethoxycarbonyl-R110 substrate", "assay_type": "cell-based, Human", "description": "Human breast cancer cell lines T-47D and DLD-1 were grown according to media component mixtures designated by American Type Culture Collection+10% FCS (Invitrogen Corporation), in a 5% CO2−95% humidity incubator at 37° C. T-47D and DLD-1 cells were maintained at a cell density between 50 and 80% confluency at a cell density of 0.1 to 0.6×10^6 cells/mL. Cells were harvested at 600×g and resuspended at 0.65×10^6 cells/mL into appropriate media+10% FCS. An aliquot of 22.5 μL of cells was added to a well of a 384-well microtiter plate containing 2.5 μL of a 10% DMSO in RPMI-1640 media solution containing 0.16 to 100 μM of (2-chloro-quinazolin-4-yl)-(4-methoxy-phenyl)-methyl-amine or other test compound (0.016 to 10 μM final). An aliquot of 22.5 μL of cells was added to a well of a 384-well microtiter plate containing 2.5 μL of a 10% DMSO in RPMI-1640 media solution without test compound as the control sample. […] […] The samples were mixed by agitation and incubated at room temperature. Using a fluorescent plate reader (Model SPECTRAfluor Plus, Tecan), an initial reading (T=0) was made approximately 1-2 min after addition of the substrate solution, employing excitation at 485 nm and emission at 530 nm, to determine the background fluorescence of the control sample. After the 3 h incubation, the samples were read for fluorescence as above (T=3 h).\nThe Relative Fluorescence Unit values (RFU) were used to calculate the sample readings as follows: RFU(T=3h)−Control RFU(T=0)=Net RFU(T=3h)\nThe activity of caspase cascade activation was determined by the ratio of the net RFU value for (2-chloro-quinazolin-4-yl)-(4-methoxy-phenyl)-methyl-amine or other test compounds to that of control samples. The EC50 (nM) was determined by a sigmoidal dose-response calculation (Prism 3.0, GraphPad Software Inc.)."}, "[1]": {"test": "Determination of brain/plasma AUC ratio after tail vein injection", "assay_type": "in vivo", "details": "mouse, intravenous, 0.0875 mg/mouse, mice, 0.10 mL of 0.875 mg/mL, AUC0-∞ from median plasma and brain concentrations", "description": "For each test compound, forty five mice were injected via the tail vein with 0.10 mL of a 0.875 mg/mL solution of test compound dissolved in a formulation of 5% Cremophor, 5% Ethanol, and 90% D5W, or a formulation variation thereof. Five mice at each collection time point of approximately 0.05, 0.25, 0.50, 1.00, 2.00, 4.00, 8.00, 12.0 and 24.0 hours post dose were euthanized by halothane inhalation. Approximately 0.30 to 1.00 mL of blood from each animal was collected via cardiac puncture into tubes containing EDTA. Immediately after exsanguination, the whole brain from each animal was removed. The plasma and whole brain samples were frozen (˜20° C.) separately until analysis. Plasma and brain samples were allowed to thaw at room temperature on the day of sample analysis. Prior to homogenization, the brains were weighed and three volumes of sterile water were added. Plasma and homogenized brain samples were extracted using a protein precipitation and filtration method. Briefly, 0.20 mL acetonitrile was added to 0.10 mL of sample in a Varian Captiva 20 μm filtration plate. A vacuum was applied to the plate and filtrates were collected. Filtrates were injected onto LC-MS/MS ABI2000 QTrap LC-MS/MS equipped with a reverse phase liquid chromatography inlet. Peak areas of the m/z product ions of the test compounds were measured against the peak are of the m/z internal standard production. The range of quantitation for the assay was between 1.00 and 1000 ng/mL for both analytes.\nPharmacokinetic parameters (PK) for the test compounds were estimated on median plasma and brain concentrations using non-compartmental analysis in WinNonlin (Pharsight Corp., Mountain View, Calif.). The validation of this software program is reported in MPI-REP-PA-03.00. All values below the quantitation limit (BQL) of 1.00 ng/mL were excluded from PK analysis. The areas under the concentration-time curve (AUC0-∞) were calculated using a linear/log trapezoidal method."}}, "note": "Where a name gives a salt, the structure may show the parent alone."}
{"molecule": "COc1ccc(N(C)c2nc(Cl)nc3ccccc23)cc1", "note": "[Example 1, (2-Chloro-quinazolin-4-yl)-(4-methoxy-phenyl)-methyl-amine]", "values": [{"measurement": "Caspase activity Ratio (net RFU of test compound to control)", "setting": "T-47D; T-47D (24 hr)", "value": 8.7}, {"measurement": "Kp", "setting": "[1]", "value": 30}]}
{"molecule": "COc1ccc(N(C)c2nc(OC)nc3ccccc23)cc1", "note": "[Example 11, (2-methoxy-quinazolin-4-yl)-(4-methoxyphenyl)-methylamine]", "values": [{"measurement": "Kp", "setting": "[1]", "value": 6.14}]}
{"molecule": "COc1ccc(N(C)c2ccnc3ccccc23)cc1", "note": "[Example 17, (4-Methoxy-phenyl)-methyl-(quinolin-4-yl)-amine]", "values": [{"measurement": "Caspase activity Ratio (net RFU of test compound to control)", "setting": "T-47D; T-47D (24 hr)", "value": 7.2}, {"measurement": "Caspase activity Ratio (net RFU of test compound to control)", "setting": "T-47D; T-47D (48 hr)", "value": 12.5}, {"measurement": "Kp", "setting": "[1]", "value": 9.16}]}
{"molecule": "COc1ccc(N(C)c2nc(C)nc3ccccc23)cc1", "note": "[Example 21, (4-Methoxy-phenyl)-methyl-(2-methyl-quinazolin-4-yl)-amine hydrochloride]", "values": [{"measurement": "Caspase activity Ratio (net RFU of test compound to control)", "setting": "T-47D; T-47D (24 hr)", "value": 9.0}, {"measurement": "Caspase activity Ratio (net RFU of test compound to control)", "setting": "T-47D; T-47D (48 hr)", "value": 7.4}, {"measurement": "Kp", "setting": "[1]", "value": 19.7}]}
{"molecule": "COc1ccc(N(C)c2nc(C)nc3ccccc23)cn1", "note": "[Example 33, (2-Methyl-quinazolin-4-yl)-(6-methoxy-pyridin-3-yl)-methyl-amine]", "values": [{"measurement": "Kp", "setting": "[1]", "value": 5.82}]}
{"molecule": "Cc1nc(N(C)c2ccc(N(C)C)cc2)c2ccccc2n1", "note": "[Example 35, (4-Dimethylamino-phenyl)-(2-methyl-quinazolin-4-yl)-methyl-amine]", "values": [{"measurement": "Caspase activity Ratio (net RFU of test compound to control)", "setting": "T-47D; T-47D (24 hr)", "value": 8.5}, {"measurement": "Kp", "setting": "[1]", "value": 16.1}]}
{"molecule": "CNc1nc(N(C)c2ccc(OC)cc2)c2ccccc2n1", "note": "[Example 39, (2-Methylamino-quinazolin-4-yl)-(4-methoxy-phenyl)-methyl-amine]", "values": [{"measurement": "Caspase activity Ratio (net RFU of test compound to control)", "setting": "T-47D; T-47D (24 hr)", "value": 8.2}, {"measurement": "Kp", "setting": "[1]", "value": 6.44}]}
{"molecule": "CNc1nc(N(C)c2ccc(OC)nc2)c2ccccc2n1", "note": "[Example 40, (2-Methylamino-quinazolin-4-yl)-(6-methoxy-pyridin-3-yl)-methyl-amine]", "values": [{"measurement": "Caspase activity Ratio (net RFU of test compound to control)", "setting": "T-47D; T-47D (24 hr)", "value": 10}, {"measurement": "Kp", "setting": "[1]", "value": 10}]}
{"molecule": "CNc1ccc(N(C)c2nc(C)nc3ccccc23)cc1", "note": "[Example 43, (2-Methyl-quinazolin-4-yl)-(4-methylamino-phenyl)-methylamine]", "values": [{"measurement": "Caspase activity Ratio (net RFU of test compound to control)", "setting": "T-47D; T-47D (24 hr)", "value": 3.4}, {"measurement": "Kp", "setting": "[1]", "value": 14.1}]}
{"molecule": "Cc1nc(N(C)c2ccc(N(C)C)cc2)c2cc([N+](=O)[O-])ccc2n1", "note": "[Example 44, (2-Methyl-6-nitroquinazolin-4-yl)-(4-dimethylaminophenyl)-methylamine]", "values": [{"measurement": "Caspase activity Ratio (net RFU of test compound to control)", "setting": "T-47D; T-47D (24 hr)", "value": 2.6}]}
{"molecule": "CN(C)c1ccc(N(C)c2nc(Cl)nc3ccccc23)cc1", "note": "[Example 45, (2-Chloro-quinazolin-4-yl)-(4-dimethylaminophenyl)-methylamine]", "values": [{"measurement": "Caspase activity Ratio (net RFU of test compound to control)", "setting": "T-47D; T-47D (24 hr)", "value": 4.2}]}
{"molecule": "COc1ccc(N(C)c2nc(N(C)C)nc3ccc([N+](=O)[O-])cc23)cc1", "note": "[Example 46, (2-Dimethylamino-6-nitroquinazolin-4-yl)-(4-methoxyphenyl)-methylamine]", "values": [{"measurement": "Caspase activity Ratio (net RFU of test compound to control)", "setting": "T-47D; T-47D (24 hr)", "value": 4.2}]}
{"molecule": "CNc1nc(N(C)c2ccc(N(C)C)cc2)c2ccccc2n1", "note": "[Example 47, (2-Methylamino-quinazolin-4-yl)-(4-dimethylaminophenyl)-methylamine]", "values": [{"measurement": "EC50", "setting": "T-47D; Homo sapiens, T47D, T-47D (24 hr)", "value": 29, "unit": "nM"}, {"measurement": "Caspase activity Ratio (net RFU of test compound to control)", "setting": "T-47D; T-47D (24 hr)", "value": 3.9}]}
{"molecule": "CC(=O)N(C)c1nc(N(C)c2ccc(N(C)C)cc2)c2ccccc2n1", "note": "[Example 48, [2-(N-Methyl-acetamido)-quinazolin-4-yl]-(4-dimethylaminophenyl)-methylamine]", "values": [{"measurement": "Caspase activity Ratio (net RFU of test compound to control)", "setting": "T-47D; T-47D (24 hr)", "value": 2.4}]}
{"molecule": "CSc1ccc(N(C)c2nc(C)nc3ccccc23)cc1", "note": "[Example 49, (4-Methylthio-phenyl)-(2-methyl-quinazolin-4-yl)-methylamine]", "values": [{"measurement": "Caspase activity Ratio (net RFU of test compound to control)", "setting": "T-47D; T-47D (24 hr)", "value": 7.5}]}
{"molecule": "Cc1nc(N(C)c2ccc(N(C)C)nc2)c2ccccc2n1", "note": "[Example 50, (2-Dimethylamino-pyridine-5-yl)-(2-methyl-quinazolin-4-yl)-methylamine]", "values": [{"measurement": "Caspase activity Ratio (net RFU of test compound to control)", "setting": "T-47D; T-47D (24 hr)", "value": 9.0}]}
{"molecule": "COc1ccc(N(C)c2nc(N(C)C(C)=O)nc3ccccc23)cc1", "note": "[Example 51, (4-Methoxy-phenyl)-(2-N-methylacetamido-quinazolin-4-yl)-methylamine]", "values": [{"measurement": "Caspase activity Ratio (net RFU of test compound to control)", "setting": "T-47D; T-47D (24 hr)", "value": 4.0}, {"measurement": "Kp", "setting": "[1]", "value": 23.3}]}
{"molecule": "COc1ccc(N(C)c2nc(C)nc3ccc(N(C)C)cc23)cc1", "note": "[Example 52, (6-Dimethylamino-2-methyl-quinazolin-4-yl)-(4-methoxy-phenyl)-methylamine]", "values": [{"measurement": "Caspase activity Ratio (net RFU of test compound to control)", "setting": "T-47D; T-47D (24 hr)", "value": 6.4}]}
{"molecule": "CN(c1ccc([N+](=O)[O-])cc1)c1nc(Cl)nc2ccccc12", "note": "[Example 54, (2-Chloro-quinazolin-4-yl)-(4-nitro-phenyl)-methyl-amine]", "values": [{"measurement": "Caspase activity Ratio (net RFU of test compound to control)", "setting": "T-47D; T-47D (24 hr)", "value": 7.1}]}
{"molecule": "CN(c1ccccc1)c1nc(Cl)nc2ccccc12", "note": "[Example 55, (2-Chloro-quinazolin-4-yl)-phenyl-methyl-amine]", "values": [{"measurement": "Caspase activity Ratio (net RFU of test compound to control)", "setting": "T-47D; T-47D (24 hr)", "value": 6.7}]}
{"molecule": "COc1ccc(OC)c(N(C)c2nc(Cl)nc3ccccc23)c1", "note": "[Example 56, (2-Chloro-quinazolin-4-yl)-(2,5-dimethoxy-phenyl)-methyl-amine]", "values": [{"measurement": "Caspase activity Ratio (net RFU of test compound to control)", "setting": "T-47D; T-47D (24 hr)", "value": 8.6}, {"measurement": "Caspase activity Ratio (net RFU of test compound to control)", "setting": "T-47D; T-47D (48 hr)", "value": 14.6}]}
{"molecule": "COc1ccccc1N(C)c1nc(Cl)nc2ccccc12", "note": "[Example 57, (2-Chloro-quinazolin-4-yl)-(2-methoxy-phenyl)-methyl-amine]", "values": [{"measurement": "Caspase activity Ratio (net RFU of test compound to control)", "setting": "T-47D; T-47D (48 hr)", "value": 14.3}]}
{"molecule": "CN(c1ccc(O)cc1)c1nc(Cl)nc2ccccc12", "note": "[Example 58, (2-Chloro-quinazolin-4-yl)-(4-hydroxyphenyl)-methylamine]", "values": [{"measurement": "Caspase activity Ratio (net RFU of test compound to control)", "setting": "T-47D; T-47D (48 hr)", "value": 12.5}]}
{"molecule": "COc1ccc(N(C)c2nc(Cl)nc3cc(Cl)ccc23)cc1", "note": "[Example 59, (2,7-Dichloro-quinazolin-4-yl)-(4-methoxy-phenyl)-methyl-amine]", "values": [{"measurement": "Caspase activity Ratio (net RFU of test compound to control)", "setting": "T-47D; T-47D (48 hr)", "value": 12.7}]}
{"molecule": "COc1ccc(N(C)c2nc(Cl)nc3cc(C)ccc23)cc1", "note": "[Example 60, (2-Chloro-7-methyl-quinazolin-4-yl)-(4-methoxy-phenyl)-methyl-amine]", "values": [{"measurement": "Caspase activity Ratio (net RFU of test compound to control)", "setting": "T-47D; T-47D (48 hr)", "value": 6.2}]}
